Test results: PubChem BioAssay (NCI)
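96-well plates; 48 h exposure; 5 concentrations. Endpoints by linear interpolation between flanking doses. Not reached: highest tested concentration assigned. At the TGI there is no net growth.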

Experiments:
Experiment in all cases: inhibition of tumour cell growth, NCI panel, 48 h
786-0 renal = test system: 786-0 renal
A498 renal = test system: A498 renal
A549 NSCLC = test system: A549 NSCLC
ACHN renal = test system: ACHN renal
BT-549 breast = test system: BT-549 breast
CAKI-1 renal = test system: CAKI-1 renal
CCRF-CEM leukemia = test system: CCRF-CEM leukemia
COLO 205 colon = test system: COLO 205 colon
DLD-1 colon = test system: DLD-1 colon
DMS 114 small cell lung = test system: DMS 114 small cell lung
DU-145 prostate = test system: DU-145 prostate
EKVX NSCLC = test system: EKVX NSCLC
HCC-2998 colon = test system: HCC-2998 colon
HCT-116 colon = test system: HCT-116 colon
HCT-15 colon = test system: HCT-15 colon
HL-60(TB) leukemia = test system: HL-60(TB) leukemia
HOP-62 NSCLC = test system: HOP-62 NSCLC
HOP-92 NSCLC = test system: HOP-92 NSCLC
HS 578T breast = test system: HS 578T breast
HT29 colon = test system: HT29 colon
IGROV1 ovarian = test system: IGROV1 ovarian
K-562 leukemia = test system: K-562 leukemia
KM12 colon = test system: KM12 colon
KM20L2 colon = test system: KM20L2 colon
LOX IMVI melanoma = test system: LOX IMVI melanoma
LXFL 529 NSCLC = test system: LXFL 529 NSCLC
M14 melanoma = test system: M14 melanoma
M19-MEL melanoma = test system: M19-MEL melanoma
MALME-3M melanoma = test system: MALME-3M melanoma
MCF7 breast = test system: MCF7 breast
MDA-MB-435 = test system: MDA-MB-435
MDA-N = test system: MDA-N
MOLT-4 leukemia = test system: MOLT-4 leukemia
NCI-H226 lung = test system: NCI-H226 lung
NCI-H23 lung = test system: NCI-H23 lung
NCI-H460 lung = test system: NCI-H460 lung
NCI-H522 lung = test system: NCI-H522 lung
NCI/ADR-RES ovarian = test system: NCI/ADR-RES ovarian
OVCAR-3 ovarian = test system: OVCAR-3 ovarian
OVCAR-4 ovarian = test system: OVCAR-4 ovarian
OVCAR-5 ovarian = test system: OVCAR-5 ovarian
OVCAR-8 ovarian = test system: OVCAR-8 ovarian
PC-3 prostate = test system: PC-3 prostate
RPMI-8226 leukemia = test system: RPMI-8226 leukemia
RXF 393 renal = test system: RXF 393 renal
SF-268 CNS = test system: SF-268 CNS
SF-295 CNS = test system: SF-295 CNS
SF-539 CNS = test system: SF-539 CNS
SK-MEL-2 melanoma = test system: SK-MEL-2 melanoma
SK-MEL-28 melanoma = test system: SK-MEL-28 melanoma
SK-MEL-5 melanoma = test system: SK-MEL-5 melanoma
SK-OV-3 ovarian = test system: SK-OV-3 ovarian
SN12C renal = test system: SN12C renal
SNB-19 CNS = test system: SNB-19 CNS
SNB-75 CNS = test system: SNB-75 CNS
SNB-78 CNS = test system: SNB-78 CNS
SW-620 colon = test system: SW-620 colon
T-47D breast = test system: T-47D breast
TK-10 renal = test system: TK-10 renal
U251 CNS = test system: U251 CNS
UACC-257 melanoma = test system: UACC-257 melanoma
UACC-62 melanoma = test system: UACC-62 melanoma
UO-31 renal = test system: UO-31 renal
MDA-MB-231 breast = test system: MDA-MB-231 breast
SR leukemia = test system: SR leukemia

Cc1nc(-n2nc(-c3ccccc3)cc2-c2ccccc2)sc1C(/C=C\c1ccc([N+](=O)[O-])cc1)=N/NC(=S)NN
TGI (786-0 renal): 46 µM | TGI (A498 renal): > 100 µM | TGI (A549 NSCLC): > 100 µM | TGI (ACHN renal): > 82 µM | TGI (BT-549 breast): 49.2 µM | TGI (CAKI-1 renal): > 56.5 µM | TGI (CCRF-CEM leukemia): > 100 µM | TGI (COLO 205 colon): > 31.6 µM | TGI (DLD-1 colon): 48.6 µM | TGI (DMS 114 small cell lung): > 100 µM | TGI (DU-145 prostate): 98.9 µM | TGI (EKVX NSCLC): > 100 µM | TGI (HCC-2998 colon): 40.3 µM | TGI (HCT-116 colon): 41 µM | TGI (HCT-15 colon): 56.6 µM | TGI (HL-60(TB) leukemia): > 87.2 µM | TGI (HOP-62 NSCLC): 52.2 µM | TGI (HOP-92 NSCLC): > 100 µM | TGI (HS 578T breast): > 100 µM | TGI (HT29 colon): > 72 µM | TGI (IGROV1 ovarian): > 72 µM | TGI (K-562 leukemia): > 100 µM | TGI (KM12 colon): > 100 µM | TGI (KM20L2 colon): > 100 µM | TGI (LOX IMVI melanoma): > 66.5 µM | TGI (LXFL 529 NSCLC): > 100 µM | TGI (M14 melanoma): > 80.1 µM | TGI (M19-MEL melanoma): > 100 µM | TGI (MALME-3M melanoma): > 100 µM | TGI (MCF7 breast): 35.1 µM | TGI (MDA-MB-435): > 100 µM | TGI (MDA-N): 50.7 µM | TGI (MOLT-4 leukemia): > 100 µM | TGI (NCI-H226 lung): > 86.6 µM | TGI (NCI-H23 lung): 60.6 µM | TGI (NCI-H460 lung): > 66.7 µM | TGI (NCI-H522 lung): 42.3 µM | TGI (NCI/ADR-RES ovarian): 85.3 µM | TGI (OVCAR-3 ovarian): > 70.7 µM | TGI (OVCAR-4 ovarian): > 100 µM | TGI (OVCAR-5 ovarian): > 65.4 µM | TGI (OVCAR-8 ovarian): 28.6 µM | TGI (PC-3 prostate): > 100 µM | TGI (RPMI-8226 leukemia): > 100 µM | TGI (RXF 393 renal): > 59 µM | TGI (SF-268 CNS): > 61.3 µM | TGI (SF-295 CNS): > 100 µM | TGI (SF-539 CNS): > 61.3 µM | TGI (SK-MEL-2 melanoma): 98.5 µM | TGI (SK-MEL-28 melanoma): > 100 µM | TGI (SK-MEL-5 melanoma): > 53.4 µM | TGI (SK-OV-3 ovarian): > 100 µM | TGI (SN12C renal): > 31.6 µM | TGI (SNB-19 CNS): > 80 µM | TGI (SNB-75 CNS): > 100 µM | TGI (SNB-78 CNS): > 100 µM | TGI (SW-620 colon): > 100 µM | TGI (T-47D breast): 87.7 µM | TGI (TK-10 renal): > 59.2 µM | TGI (U251 CNS): > 100 µM | TGI (UACC-257 melanoma): > 67.7 µM | TGI (UACC-62 melanoma): > 57.7 µM | TGI (UO-31 renal): > 58.3 µM

c1ccc(C(OCCN2CC3CCC(C2)N3)c2ccccc2)cc1
TGI (786-0 renal): > 100 µM | TGI (A498 renal): > 100 µM | TGI (A549 NSCLC): > 100 µM | TGI (ACHN renal): > 100 µM | TGI (BT-549 breast): > 100 µM | TGI (CAKI-1 renal): > 100 µM | TGI (CCRF-CEM leukemia): > 100 µM | TGI (COLO 205 colon): 42.2 µM | TGI (DU-145 prostate): > 100 µM | TGI (EKVX NSCLC): > 100 µM | TGI (HCC-2998 colon): 32.3 µM | TGI (HCT-116 colon): > 100 µM | TGI (HCT-15 colon): > 100 µM | TGI (HL-60(TB) leukemia): > 100 µM | TGI (HOP-62 NSCLC): > 100 µM | TGI (HOP-92 NSCLC): 75.6 µM | TGI (HS 578T breast): > 100 µM | TGI (HT29 colon): > 100 µM | TGI (IGROV1 ovarian): > 100 µM | TGI (K-562 leukemia): > 100 µM | TGI (KM12 colon): > 100 µM | TGI (LOX IMVI melanoma): > 100 µM | TGI (M14 melanoma): 32.3 µM | TGI (MALME-3M melanoma): 30.5 µM | TGI (MCF7 breast): > 100 µM | TGI (MDA-MB-231 breast): > 100 µM | TGI (MDA-MB-435): > 100 µM | TGI (MDA-N): 79.6 µM | TGI (MOLT-4 leukemia): > 100 µM | TGI (NCI-H226 lung): > 100 µM | TGI (NCI-H23 lung): > 100 µM | TGI (NCI-H460 lung): > 100 µM | TGI (NCI-H522 lung): 93.1 µM | TGI (NCI/ADR-RES ovarian): > 100 µM | TGI (OVCAR-3 ovarian): > 100 µM | TGI (OVCAR-4 ovarian): > 100 µM | TGI (OVCAR-5 ovarian): > 100 µM | TGI (OVCAR-8 ovarian): > 100 µM | TGI (PC-3 prostate): > 100 µM | TGI (RPMI-8226 leukemia): > 100 µM | TGI (RXF 393 renal): > 100 µM | TGI (SF-268 CNS): > 100 µM | TGI (SF-295 CNS): > 100 µM | TGI (SF-539 CNS): > 100 µM | TGI (SK-MEL-2 melanoma): > 100 µM | TGI (SK-MEL-28 melanoma): > 100 µM | TGI (SK-MEL-5 melanoma): 36.1 µM | TGI (SK-OV-3 ovarian): > 100 µM | TGI (SN12C renal): > 100 µM | TGI (SNB-19 CNS): > 100 µM | TGI (SNB-75 CNS): > 100 µM | TGI (SR leukemia): > 100 µM | TGI (SW-620 colon): > 100 µM | TGI (T-47D breast): > 100 µM | TGI (TK-10 renal): > 100 µM | TGI (U251 CNS): > 100 µM | TGI (UACC-257 melanoma): 49 µM | TGI (UACC-62 melanoma): 64.3 µM | TGI (UO-31 renal): > 100 µM
